Experimental data: publication PMC9326216, “Treatment of Cardiovascular Dysfunction with PDE3-Inhibitors in Moderate and Severe Hypothermia—Effects on Cellular Elimination of Cyclic Adenosine Monophosphate and Cyclic Guanosine Monophosphate” (Frontiers in Physiology, 2022)

How the values were obtained:
ABCC4 = target: T1, ABCC4 (Homo sapiens, UniProt O15439); experiment: biochemical; type: biochemical; conditions: cAMP-efflux, inside-out vesicles; for IC50: 20 µM 3H-cAMP, 60 min; for Ki: ABCC4 Ki
T1 sequence (O15439 1-1325): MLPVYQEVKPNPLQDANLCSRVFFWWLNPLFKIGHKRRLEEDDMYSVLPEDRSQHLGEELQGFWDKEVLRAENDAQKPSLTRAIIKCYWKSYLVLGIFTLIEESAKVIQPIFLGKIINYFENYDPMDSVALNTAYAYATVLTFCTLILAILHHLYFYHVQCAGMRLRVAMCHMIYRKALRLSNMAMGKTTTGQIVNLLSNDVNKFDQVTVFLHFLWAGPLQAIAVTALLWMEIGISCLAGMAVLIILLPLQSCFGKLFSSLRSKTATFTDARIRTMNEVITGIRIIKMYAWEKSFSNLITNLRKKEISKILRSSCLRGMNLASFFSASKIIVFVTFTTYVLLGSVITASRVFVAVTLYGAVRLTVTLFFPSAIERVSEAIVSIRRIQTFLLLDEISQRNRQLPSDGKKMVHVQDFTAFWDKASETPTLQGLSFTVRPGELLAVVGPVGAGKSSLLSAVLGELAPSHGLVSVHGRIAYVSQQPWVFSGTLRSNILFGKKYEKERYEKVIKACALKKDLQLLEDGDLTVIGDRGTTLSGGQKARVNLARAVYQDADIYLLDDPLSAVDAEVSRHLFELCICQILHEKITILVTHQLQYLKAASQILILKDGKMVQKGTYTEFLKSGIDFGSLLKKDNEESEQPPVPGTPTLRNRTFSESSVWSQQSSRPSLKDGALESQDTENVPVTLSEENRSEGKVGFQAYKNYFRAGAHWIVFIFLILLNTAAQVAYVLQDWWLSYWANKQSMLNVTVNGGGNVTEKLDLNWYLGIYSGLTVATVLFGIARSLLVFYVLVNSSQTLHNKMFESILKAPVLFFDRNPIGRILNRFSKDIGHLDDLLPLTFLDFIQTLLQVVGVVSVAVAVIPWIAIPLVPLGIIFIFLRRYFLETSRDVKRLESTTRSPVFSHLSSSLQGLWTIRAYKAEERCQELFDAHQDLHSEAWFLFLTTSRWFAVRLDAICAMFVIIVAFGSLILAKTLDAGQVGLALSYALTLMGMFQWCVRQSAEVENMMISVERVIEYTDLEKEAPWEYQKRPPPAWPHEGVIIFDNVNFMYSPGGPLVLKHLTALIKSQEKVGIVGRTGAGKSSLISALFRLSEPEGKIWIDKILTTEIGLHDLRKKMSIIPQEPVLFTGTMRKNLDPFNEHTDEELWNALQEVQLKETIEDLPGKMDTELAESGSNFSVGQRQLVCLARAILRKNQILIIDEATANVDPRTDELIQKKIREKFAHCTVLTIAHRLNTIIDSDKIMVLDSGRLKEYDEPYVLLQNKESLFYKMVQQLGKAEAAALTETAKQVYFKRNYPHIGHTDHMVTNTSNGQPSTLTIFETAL
Experimental: Freshly collected EDTA blood from healthy donors (n = 35) was prepared at 0°C–4°C, starting by separating the erythrocytes from plasma by centrifugation at 2,300 g for approximately 15 min. […] Lysis followed thereafter, with ten volumes of 5 mM Tris-HCl, 0.5 mM EGTA, 4 mM KCl (pH 8.1) and washed by repeated centrifugation at 20,000 g for 20 min and resuspension in the same buffer. Vesiculation was initiated by adding 39 volumes of a […] buffer ([…] Tris-HCl, pH 8.2) to one volume of cell suspension and completed by forcing the solution five times through a 27-gauge syringe needle to promote homogenization of the membranes. […] The resulting IOVs, which still contained ABC-transporters in the membrane, enabled us to control the intracellular environment, in this case the surrounding medium, and collect the cyclic nucleotides within. […] Radioactive labeled (^3H)-cAMP or (^3H)-cGMP (Perkin Elmer, Boston, MA, United States) were added to the incubation solutions in the concentration 20 and 2 μM, respectively, depending on the transporter examined, together with the appointed study drug in concentrations up to 1 mM. […] Next step was to collect the IOVs, which was done by filtration through a nitrocellulose membrane (Bio-Rad Laboratories, Feldkirchen, Germany), and then drying it. The resulting collection of radioactivity upon the filter, was later quantified by using a Packard TopCount NXT (Packard, Downers Grove, IL, United states) after adding scintillation fluid (MicroScint-O, PerkinElmer, Groningen, Netherlands).
IC50 and Ki values were calculated for each of the drugs, both for their ability to inhibit cAMP- and cGMP- efflux, as well as PDE3 and PDE5 activity. […] Inhibition curves were created accordingly, both with and without adjustment for normothermic control.

erythrocytes = experiment: Intracellular access of the drugs in erythrocytes (LC-MS); type: in vitro ADME, human; conditions: 30 min incubation, milrinone 10 µM, amrinone 100 µM, levosimendan 1 µM
Experimental: Fresh (<24 h) EDTA blood from healthy donors (n = 18) was obtained and washed with Krebs-Ringer-Phosphate-Buffer containing glucose (KRPB/G, pH 7.4) and centrifuged (10 min, 1,000 g) three consecutive times. Plasma and buffy coat were removed. KRPB/G was added to the cell solution to bring it to the ratio 1:2.5. Hematocrit (Hct) was measured and adjusted with additional buffer to reach 0.44, in order to give the final Hct of 0.40 in the incubation solution. […] The reaction was stopped by placing the test tubes on ice and adding 4 ml of ice cold KRFB/G. The samples were subsequently centrifugated (5 min, 600 g), then washed with KRFB/G once more and centrifugation was repeated twice. 50 µl of the remaining red blood cell suspension was transferred to Eppendorf tubes. 50 µl 500 nM IS-Milrinone-d3 was added as an internal standard (TLC Pharmaceutical Standards Ltd.). 200 µl ZnSO4 was added to each test sample, to induce lysis of the cells, and mixed in a vortex mixer. 30 µl of the samples were used for measurement of protein concentration, the rest was mixed with 500 µl acetonitrile and centrifugated (2 min, 13400 g). Finally, 100 µl of the solution was collected for analysis using mass spectrometry (MS).
Liquid chromatography tandem mass spectrometry (LC-MS) was used to assess concentrations of the inhibitors for experiments performed to determine intracellular access of these drugs, as well as to quantify levels of cAMP/AMP and cGMP/GMP for the PDE3-and PDE5-inhibition plots. Internal standards were used, as described previously. There was a linearity from 0.2 nM to at least 2000 nM (r^2 > 0.998) for cAMP, AMP, and cGMP. For GMP, linearity was present from 2 nM to at least 2000 nM (r^2 > 0.998). Concerning PDE3-inhibitors, the linearity was found at 10 nM to at least 5,000 nM (r^2 > 0.99). Lower limit of quantification (LLOQ) was 0.2 for cAMP, cGMP, and AMP, 2 nM for GMP and 10 nM for PDE3-inhibitors (2 µl injection volume).
Intracellular concentrations of drugs were adjusted for protein concentrations in each sample. The total incubation concentrations were also adjusted for protein concentrations to evaluate the degree of access in percentage. Statistical analysis was performed using one-way ANOVA with Holm-Sidak multiple comparisons post hoc test at each temperature. ANOVA on ranks with Dunn post hoc test was used when the results were not normally distributed. The results are presented as means ± standard error of mean (SEM). p-values < 0.05 were considered significant results. Degrees of freedom (dF) is given as between group values. SigmaPlot 14.0 (Systat Software, San Jose, CA, United States) was used for all analysis, as well as creating the graphs.

Cc1[nH]c(=O)c(C#N)cc1-c1ccncc1 [Milrinone]
IC50 (ABCC4; ABCC4 IC50, 28°C): 37.4 ± 24.5 µM
IC50 (ABCC4; ABCC4 IC50, 32°C): 32.9 ± 14.6 µM
IC50 (ABCC4; ABCC4 IC50, 34°C): 67 ± 22.6 µM
IC50 (ABCC4; ABCC4 IC50, 37°C): 58.9 ± 13.1 µM
Ki (ABCC4; 28°C): 22.7 ± 14.9 µM
Ki (ABCC4; 32°C): 20 ± 8.86 µM
Ki (ABCC4; 34°C): 40.6 ± 13.7 µM
Ki (ABCC4; 37°C): 35.7 ± 7.94 µM
Intracellular access, % of drug concentration per gram protein in the incubation solution (erythrocytes; 28°C): 15.06 ± 0.544%
Intracellular access, % of drug concentration per gram protein in the incubation solution (erythrocytes; 34°C): 11.41 ± 1.675%
